Laboratory results reported in US20260217708A1, “FUSED BENZAZEPINE DERIVATIVES FOR USE IN THE TREATMENT OF CANCER AND EPILEPSY” (UCB BIOPHARMA SRL, priority 2023, published 2026).

What was measured:
system Xc^− [1] = biological target: T1, system Xc^− (Homo sapiens, UniProt Q9UPY5); test: Cystine-induced glutamate release assay; assay type: cell-based; parameters: endogenous in cells; host or cells: H4 cells; details: H4 cells, sodium-free HEPES buffer, 50 μM L-Cystine, 2 hours, Amplex Red glutamate readout; for IC50: read-out: pIC50 Cystine-induced glutamate release assay (converted)
T1 sequence (Q9UPY5 1-501): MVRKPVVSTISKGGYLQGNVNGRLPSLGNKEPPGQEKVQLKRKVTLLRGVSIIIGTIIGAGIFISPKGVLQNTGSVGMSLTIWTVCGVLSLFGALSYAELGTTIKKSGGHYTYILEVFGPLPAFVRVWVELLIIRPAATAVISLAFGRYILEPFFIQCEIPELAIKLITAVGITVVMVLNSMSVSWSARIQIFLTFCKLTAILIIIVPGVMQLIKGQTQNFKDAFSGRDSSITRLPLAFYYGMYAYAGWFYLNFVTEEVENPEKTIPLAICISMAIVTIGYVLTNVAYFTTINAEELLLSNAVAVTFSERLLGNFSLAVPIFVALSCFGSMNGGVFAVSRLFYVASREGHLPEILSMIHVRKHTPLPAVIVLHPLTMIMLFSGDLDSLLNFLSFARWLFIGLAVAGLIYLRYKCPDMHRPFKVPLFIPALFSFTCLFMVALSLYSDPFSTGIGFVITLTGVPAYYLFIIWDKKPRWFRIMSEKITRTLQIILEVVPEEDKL
T1 sequence (P08195 1-529 partner): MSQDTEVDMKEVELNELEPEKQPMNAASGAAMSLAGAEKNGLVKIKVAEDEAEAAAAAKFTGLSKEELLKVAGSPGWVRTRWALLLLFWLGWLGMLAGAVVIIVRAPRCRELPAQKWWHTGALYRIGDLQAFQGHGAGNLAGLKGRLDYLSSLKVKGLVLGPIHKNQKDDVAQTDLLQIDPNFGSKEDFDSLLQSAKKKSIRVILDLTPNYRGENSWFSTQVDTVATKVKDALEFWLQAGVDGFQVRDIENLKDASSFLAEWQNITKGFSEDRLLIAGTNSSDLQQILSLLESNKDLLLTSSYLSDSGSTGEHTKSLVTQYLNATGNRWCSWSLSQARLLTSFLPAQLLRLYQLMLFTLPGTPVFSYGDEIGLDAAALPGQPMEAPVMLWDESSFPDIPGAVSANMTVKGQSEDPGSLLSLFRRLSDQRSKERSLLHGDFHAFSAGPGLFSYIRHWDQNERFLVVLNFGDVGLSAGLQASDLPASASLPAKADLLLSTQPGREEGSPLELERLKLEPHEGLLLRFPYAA
Source text: (§1) The effect of compounds of Formula (I) on the system Xc^− functionality was examined in two independent cell assays: (i) measurement of cystine-induced glutamate release; and (ii) measurement of [^14C]L-Cystine uptake.
(§2) As described above, System Xc^−, also known as the cystine/glutamate antiporter, is an amino acid transporter that mediates the extrusion of intracellular L-glutamate outside the cell and the uptake of extracellular L-cystine into the cell.
(§3) By measuring respectively, the concentration of glutamate released outside the cell and the L-cystine uptaken in the cell, with increasing concentrations of compounds of formula (I) according to the present invention, the efficacy of said compounds to inhibit the System Xc^− function can be evaluated.
(§4) The efficacy of the compounds to inhibit system Xc^− is represented by measuring the IC50 which corresponds to the concentration of compound necessary to inhibit 50% of the signals from the two control groups; DMSO 1% and Erastin 50 μM in the respective assays. pIC50 values correspond to −log of the IC50 in Molar.
Measurement of cystine-induced glutamate release indicates levels of glutamate (outside of the cell) that are dependent on system Xc^− antiporter function. Upon the addition of L-Cystine to H4 cells, intracellular glutamate is counter-transported and exported in the supernatant.
In this assay, the medium is devoid of sodium to prevent the transport of glutamate by sodium-dependent excitatory amino acid transporters (EAATs). H4 cells were plated on 384-well culture plate at 1×10^4 cells/well in Dulbecco's Modified Eagle Medium (DMEM) with L-glutamine, penicillin/streptomycin and 10% fetal bovine serum (all from ThermoFisher Scientific) and incubated in a humidified CO2 incubator at 37° C. After 2 days, cells were washed 4 times with prewarmed sodium-free HEPES buffer (contents in mM: HEPES 10, KCl 5.4, CaCl2 2.5, MgCl2 1, KH2PO4 0.4, D-Glucose 5, Choline chloride 140), pH 7.4. Glutamate release was induced by addition of 50 μM of L-Cystine (Sigma-Aldrich), together with a test compound of Formula (I) at 1% final DMSO concentration. After 2 hours of incubation in the culture incubator, supernatants were transferred to a low-binding polypropylene 384-well plate to determine L-glutamate concentration using Amplex™ Red Glutamic Acid Assay Kit (ThermoFisher Scientific). Briefly, 10 μL of Amplex™ Red working solution was added to 10 μL of the supernatant, then the mixture was incubated for 30 min at 37° C. Fluorescence intensity was measured by EnVision microplate reader (PerkinElmer).

system Xc^− [2] = biological target: T1, system Xc^−; test: [^14C]L-Cystine uptake assay; assay type: cell-based; parameters: endogenous in cells; host or cells: H4 cells; details: H4 cells, sodium-free HEPES buffer, 0.5 μM L-[14C]Cystine and 4.5 μM L-Cystine, 1 hour at 37° C.; for IC50: read-out: pIC50 [^14C] L-Cystine uptake assay (converted)
Source text: as §1, §2, §3, §4
In this assay, the medium is devoid of sodium to prevent the transport of glutamate by sodium-dependent excitatory amino acid transporters (EAATs). H4 cells were plated on a 96-well CytoStar-T scintillating microplate (PerkinElmer) at 5×10^4 cells/well in the medium described above. After 1 day, cells were washed one time with the sodium-free HEPES buffer and preincubated with test compounds of Formula (I) (1% final DMSO) for 15 min. Uptake was initiated by adding 0.5 μM L-[1,2, 1′,2′-^14C]Cystine (0.02 mCi/mL, PerkinElmer, Waltham, US) and 4.5 μM L-Cystine (Sigma-Aldrich). After 1 hour at 37° C., plates were counted in a MicroBeta^2 microplate counter (PerkinElmer).

SMILES	IC50 (system Xc^− [1]) [µM]	IC50 (system Xc^− [2]) [µM]	pIC50 Cystine-induced glutamate release assay (system Xc^− [1])	pIC50 [^14C] L-Cystine uptake assay (system Xc^− [2])
CCn1c(C)cc2c(c1=O)-c1cccnc1[C@@H](C)C(=O)N2CC(=O)Nc1ccc(Cl)c(F)c1 (single isomer, unassigned) [#176, Enantiomer (10R) or (10S) of N-(4-chloro-3-fluoro-phenyl)-2-[4-ethyl-5,10-dimethyl-3,9-dioxo-4,8,12-triazatricyclo[9.4.0.0^2,7]pentadeca-1(15),2(7),5,11,13-pentaen-8-yl]acetamide]	< 0.0158	< 0.0158	–	–
Cc1cc2c(c(=O)n1C)-c1cccnc1[C@@H](C)C(=O)N2CC(=O)Nc1ccc(C(F)F)cc1 (single isomer, unassigned) [#177, Enantiomer (10R) or (10S) of N-[4-(difluoromethyl)phenyl]-2-[4,5,10-trimethyl-3,9-dioxo-4,8,12-triazatricyclo[9.4.0.0^2,7]pentadeca-1(11),2(7),5,12,14-pentaen-8-yl]acetamide]	< 0.0158	< 0.0158	–	–
Cc1cc2c(c(=O)n1C)-c1cccnc1[C@@H](C)C(=O)N2CC(=O)Nc1ccc(C(F)(F)F)cc1 (single isomer, unassigned) [#178, Enantiomer (10R) or (10S) of N-[4-(trifluoromethyl)phenyl]-2-[4,5,10-trimethyl-3,9-dioxo-4,8,12-triazatricyclo[9.4.0.0^2,7]pentadeca-1(15),2(7),5,11,13-pentaen-8-yl]acetamide]	< 0.0158	< 0.0158	–	–
CC1C(=O)N(CC(=O)Nc2ccc(C(F)(F)F)cc2)c2cn(C)c(=O)c(F)c2-c2cccnc21 (single isomer, unassigned) [#184, enantiomer (10R) or (10S) of 2-(3-fluoro-5,10-dimethyl-4,9-dioxo-5,8,12-triazatricyclo[9.4.0.0^2,7]pentadeca-1(11),2,6,12,14-pentaen-8-yl)-N-[4-(trifluoromethyl)phenyl]acetamide]	0.0158 to 0.0398	< 0.0158	–	–
Cc1cc2c(c(Cl)n1)-c1ccccc1CC(=O)N2CC(=O)Nc1ccc(C(F)(F)F)cc1 (single isomer, unassigned) [#189, Atropisomer aR or aS of 2-(1-chloro-3-methyl-6-oxo-7H-pyrido[4,3-d][3]benzazepin-5-yl)-N-[4-(trifluoromethyl)phenyl]acetamide]	–	–	D (plC50 > about 7.80)	D (plC50 > about 7.80)
Cc1cc2c(c(Cl)n1)-c1ccccc1CC(=O)N2CC(=O)Nc1ccc(C(F)(F)F)cc1 (single isomer, unassigned) [#190, Atropisomer aS or aR of 2-(1-chloro-3-methyl-6-oxo-7H-pyrido[4,3-d][3]benzazepin-5-yl)-N-[4-(trifluoromethyl)phenyl]acetamide]	–	–	A (about 6.3 ≤ pIC50 ≤ about 7.00)	B (about 7.00 < pIC50 ≤ about 7.40)
O=C(CN1C(=O)Cc2cc(F)ccc2-c2c1ccnc2Cl)Nc1ccc(C(F)(F)F)cc1 (single isomer, unassigned) [#193, Atropisomer aR or aS of 2-(1-chloro-9-fluoro-6-oxo-7H-pyrido[4,3-d][3]benzazepin-5-yl)-N-[4-(trifluoromethyl)phenyl]acetamide]	–	–	C (about 7.40 < pIC50 ≤ about 7.80)	D (plC50 > about 7.80)
Cc1cc2c(c(C(F)F)n1)-c1ccccc1CC(=O)N2CC(=O)Nc1ccc(C(F)(F)F)cc1 (single isomer, unassigned) [#194, Atropisomer aR or aS of 2-[1-(difluoromethyl)-3-methyl-6-oxo-7H-pyrido[4,3-d][3]benzazepin-5-yl]-N-[4-(trifluoromethyl)phenyl]acetamide]	–	–	C (about 7.40 < pIC50 ≤ about 7.80)	D (plC50 > about 7.80)

Further lines, with some results ahead:

IC50 (system Xc^− [1]) [µM]	IC50 (system Xc^− [2]) [µM]	SMILES	pIC50 Cystine-induced glutamate release assay (system Xc^− [1])	pIC50 [^14C] L-Cystine uptake assay (system Xc^− [2])
0.0158 to 0.0398	0.0398 to 0.1	Cc1cc2c(cn1)-c1ccnn1C(C)C(=O)N2CC(=O)Nc1ccc(Cl)c(F)c1 (single isomer, unassigned) [#186, enantiomer (7S) or (7R) of N-(4-chloro-3-fluoro-phenyl)-2-[7,12-dimethyl-8-oxo-5,6,9,13-tetrazatricyclo[8.4.0.0^2,6]tetradeca-1(10),2,4,11,13-pentaen-9-yl]acetamide]	–	–
0.0398 to 0.1	0.0158 to 0.0398	CC1C(=O)N(CC(=O)Nc2ccc(C(F)(F)F)cc2)c2ccnc(F)c2-c2cccnc21 (single isomer, unassigned) [#187, enantiomer (10R) or (10S) of 2-[3-fluoro-10-methyl-9-oxo-4,8,12-triazatricyclo[9.4.0.0^2,7]pentadeca-1(11),2(7),3,5,12,14-hexaen-8-yl]-N-[4-(trifluoromethyl)phenyl]acetamide]	–	–
< 0.0158	< 0.0158	Cc1cc2c(c(Cl)n1)-c1cccnc1C(F)C(=O)N2CC(=O)Nc1ccc(C(F)(F)F)cc1 (single isomer, unassigned) [#188, enantiomer (10R) or (10S) of 2-[3-chloro-10-fluoro-5-methyl-9-oxo-4,8,12-triazatricyclo[9.4.0.0^2,7]pentadeca-1(11),2(7),3,5,12,14-hexaen-8-yl]-N-[4-(trifluoromethyl)phenyl]acetamide]	–	–
0.1 to 0.501	0.0398 to 0.1	Cc1cc2c(c(F)n1)-c1cccnc1[C@H](C)C(=O)N2CC(=O)Nc1ccc(C(F)(F)F)cc1 (single isomer, unassigned) [#191]	–	–
< 0.0158	< 0.0158	Cc1cc2c(c(F)n1)-c1cccnc1[C@@H](C)C(=O)N2CC(=O)Nc1ccc(C(F)(F)F)cc1 (single isomer, unassigned) [#192]	–	–
< 0.0158	< 0.0158	Cc1cc2c(c(F)n1)-c1cccnc1[C@@H](F)C(=O)N2CC(=O)Nc1ccc(C(F)(F)F)cc1 (single isomer, unassigned) [#195, Enantiomer (10R) or (10S) of 2-(3,10-difluoro-5-methyl-9-oxo-4,8,12-triazatricyclo[9.4.0.0^2,7]pentadeca-1(11),2(7),3,5,12,14-hexaen-8-yl)-N-[4-(trifluoromethyl)phenyl]acetamide]	–	–
